The test system of the assay is murine neural precursor cells (neurosphere cultures). Description: HTS of LOPAC library against secondary neurosphere cultures, MTT proliferation assay at 3 μM, day 7 (z score, P value). The format is cell-based, mouse.
[1] abbreviates: yes = significantly inhibited neurosphere proliferation (P<0.01) in the primary screen.
Setting [2] is: LOPAC primary screen, neurosphere MTT proliferation, 3 μM, day 7.
[3] abbreviates: yes/no: significantly inhibited neurosphere proliferation (P<0.01) in the primary screen.
Where [4] appears, read: yes/no: significantly inhibited neurosphere proliferation (P<0.01) in primary screen.
The mark [5] stands for this setting: LOPAC library screen, 3 μM, MTT, neurosphere cultures.
Where [6] appears, read: LOPAC screen, neurosphere MTT proliferation, 3 μM, day 7.
[7] abbreviates: LOPAC library screen, 3 μM, MTT, secondary neurosphere cultures, day 7.
The mark [8] stands for this setting: yes/no: significantly inhibited neurosphere proliferation in primary screen.
The mark [9] stands for this setting: LOPAC library screen at 3 μM, secondary neurosphere cultures, MTT.
The mark [10] stands for this setting: yes/no: significantly inhibited neurosphere proliferation in the primary screen.

Counter-ions that a name gives are not always drawn. Like-named read-outs stand apart in the source and are kept apart here.

Consider `O=[N+]([O-])c1ccc(CSc2ncnc3c2ncn3[C@@H]2O[C@H](CO)[C@@H](O)[C@H]2O)cc1` [S-(4-Nitrobenzyl)-6-thioinosine], for which, where the note is “168 h, 3 µM”, the “Z Score” value is reported as −0.4271 and the Z score was −0.427. For the same compound, the Activity result under setting [1] is listed as “no”.

For `O=S(=O)(c1cccc2c(I)cccc12)N1CCCNCC1` [ML-7], the “Z Score” value is reported as −11.27. Under setting [2], this compound gave a Z score of −11.274. Under setting [3], the Activity entry is reported as “yes”.

On to `O=C1OC(=O)[C@H]2[C@@H]1[C@@H]1CC[C@H]2O1` [Norcantharidin], for which the “Z Score” value is recorded as −1.251. This compound also displayed a Z score under setting [2] of −1.251. Moreover, under setting [1], the Activity entry is “no”.

For the compound `Cl.N[C@@H](Cc1c[nH]cn1)C(=O)O` [L-Histidine hydrochloride], the “Z Score” value was −1.421. Also, under setting [2], the Z score is listed as −1.421. Besides, the Activity result under setting [4] is “no”.

`Clc1cccc(Cl)c1N=C1NCCN1` [Clonidine hydrochloride]: under setting [5], the “Z Score” value amounted to 1.041. In addition, under setting [6], the Z score stood at 1.041. For the same compound, the Activity result under setting [4] is recorded as “no”.

Turning to `CCOC(=O)N1CCC(=C2c3ccc(Cl)cc3CCc3cccnc32)CC1` [Loratadine], the “Z Score” value under setting [7] was −1.823. Under setting [2], this compound displayed a Z score of −1.823. Also, the Activity entry under setting [4] was “no”.

In the case of `O=C(O)CCCCCCCC(=O)O` [Azelaic acid], the “Z Score” value under setting [5] is listed as 0.1057. Further, the Z score under setting [2] was 0.106. For the same compound, the Activity entry under setting [8] is “no”.

For `CN(CCOc1ccc(C[C@H](Nc2ccccc2C(=O)c2ccccc2)C(=O)O)cc1)c1ccccn1` [GW1929], the “Z Score” value is reported as 0.01508. This compound came in with a Z score under setting [2] of 0.015. For the same compound, under setting [4], the Activity entry is on record as “no”.

As to `Oc1cc(-c2ccccc2)nc2nc(Cl)ccc12` [7-Chloro-4-hydroxy-2-phenyl-1,8-naphthyridine], under “168 h, 3 µM”, the “Z Score” value is listed as −0.401 and the Z score was −0.401. In addition, under setting [4], the Activity result is recorded as “no”.

Turning to S(−)-Timolol maleate, the “Z Score” value under setting [9] was −0.7675. Further, the Z score under setting [2] was −0.767. Moreover, under setting [8], the Activity entry is “no”.

Take `COc1cc(NS(C)(=O)=O)ccc1Nc1c2ccccc2nc2ccccc12` [Amsacrine hydrochloride]: under setting [7], the “Z Score” value was −11.27. The same compound had a Z score under setting [2] of −11.274. In addition, the Activity result under setting [1] was “yes”.

For the compound `c1ccc(C2CC2)c(OCC2=NCCN2)c1` [Cirazoline hydrochloride], the “Z Score” value under setting [5] is 0.4239. This compound displayed a Z score under setting [6] of 0.424. Besides, the Activity result under setting [4] is recorded as “no”.

On to `COc1ccc2[nH]cc(CCN)c2c1.Cl` [O-Methylserotonin hydrochloride], for which the “Z Score” value is −0.172. The Z score under setting [2] is reported as −0.172. Besides, under setting [1], the Activity result is recorded as “no”.

In the case of NS 521 oxalate, the “Z Score” value is reported as −11.27.

Turning to `CCN(CC)CCCCCCCCOC(=O)c1cc(OC)c(OC)c(OC)c1.Cl` [TMB-8 hydrochloride], the “Z Score” value turned out to be 1.707. The same compound came in with a Z score under setting [2] of 1.707. Besides, the Activity result under setting [1] was “no”.

Consider `CC(=O)N1CCN(c2ccc(OCC3COC(Cn4ccnc4)(c4ccc(Cl)cc4Cl)O3)cc2)CC1` (centres unmarked) [Ketoconazole], for which the Activity result is listed as “no”. For the same compound, under “168 h, 3 µM”, the “Z Score” value was 0.586 and the Z score came out at 0.586.

With `N#CC(C#N)=Cc1ccc([N+](=O)[O-])c(O)c1` [Tyrphostin AG 126], under setting [9], the “Z Score” value was −0.4102. The Z score (primary LOPAC screen, 3 μM, MTT, neurosphere proliferation) is recorded as −0.410. For the same compound, the Activity entry under setting [10] is on record as “no”.

`Br.CCCN(CCC)C1CCc2ccc(O)cc2C1` (racemic) [(±)-7-Hydroxy-DPAT hydrobromide] returned a Z score under setting [2] of −11.102. Moreover, the Activity result under setting [3] is “yes”.

Turning to `CC(COc1ccc(/C=C/c2ccccc2)cc1)[N+](C)(C)C.[I-]` (centres unmarked), the “Z Score” value is −11.13.

Turning to `CC(=O)S[C@@H]1CC2=CC(=O)CC[C@]2(C)[C@H]2CC[C@@]3(C)[C@@H](CC[C@@]34CCC(=O)O4)[C@H]12` [Spironolactone], the Activity result is “no”. The “Z Score” value under setting [9] was −0.5258. Further, the Z score under setting [2] is reported as −0.526.

In the case of `O=C(/C=C/c1ccc(O)c(O)c1)OCCc1ccccc1` [Caffeic acid phenethyl ester], under “168 h, 3 µM”, the “Z Score” value is 1.306 and the Z score came to 1.306. Further, the Activity entry under setting [4] is recorded as “no”.

On to `NC(=O)c1cc[n+](CC2=C(C(=O)O)N3C(=O)[C@@H](NC(=O)[C@@H](c4ccccc4)S(=O)(=O)[O-])[C@H]3SC2)cc1` [Cefsulodin sodium salt hydrate], for which the “Z Score” value under setting [7] is listed as −2.277. The same compound yielded a Z score under setting [2] of −2.277. Further, the Activity entry under setting [3] is “no”.

As for `CC(=O)O.CSC(=N)NCCC[C@H](N)C(=O)O` [S-Methyl-L-thiocitrulline acetate], the “Z Score” value was −1.751. Besides, under setting [2], the Z score is reported as −1.751. In addition, the Activity result under setting [1] is given as “no”.

With `Cl.Clc1ccc(N2CCN(Cc3c[nH]c4ncccc34)CC2)cc1` [L-745,870 hydrochloride], the “Z Score” value is listed as −11.27. Also, the Z score under setting [2] is on record as −11.274.

Turning to `C=CC[C@H](N)C(=O)O` [L-allylglycine], where the note is “168 h, 3 µM”, the “Z Score” value is −1.155 and the Z score is listed as −1.155. Under setting [10], the Activity result was “no”.

For the compound `Fc1ccc(C(OCCN2CCN(CCCc3ccccc3)CC2)c2ccc(F)cc2)cc1` [GBR-12909 dihydrochloride], the “Z Score” value under setting [7] is listed as −10.9. The same compound displayed a Z score under setting [2] of −10.899.

For `CCCN(CC1CC1)c1nc(C)nc(Nc2c(Cl)cc(Cl)cc2Cl)c1Cl` [NBI 27914], the “Z Score” value worked out at 0.1345. Under setting [2], this compound yielded a Z score of 0.134. Also, the Activity entry under setting [4] is “no”.

In the case of `CCC1(c2ccccc2)C(=O)NCNC1=O` [Primidone], the Activity entry was “no”. The “Z Score” value under setting [5] amounted to 0.6187. Besides, the Z score under setting [2] is listed as 0.619.

Regarding `O=C(Nc1ccccc1)c1cc([N+](=O)[O-])ccc1Cl` [GW9662], the “Z Score” value was 1.475. This compound also returned a Z score under setting [2] of 1.475. In addition, the Activity result under setting [1] was “no”.

As to `CN1CC[C@]2(CCN3CCc4c(oc5ccccc45)[C@@H]3C2)N(C)C1=O.Cl` [MK-912], the “Z Score” value is reported as −0.582. The compound further had a Z score under setting [2] of −0.582. Besides, the Activity result under setting [1] is “no”.

As for `CN(C)CCC=C1c2ccccc2C=Cc2ccccc21` [Cyclobenzaprine hydrochloride], the “Z Score” value under setting [5] is reported as 0.07186. Also, the Z score under setting [6] was found to be 0.072. Under setting [4], the Activity entry is reported as “no”.

Take `CC(=O)O[C@H]1C(=O)[C@@]2(C)[C@H]([C@H](OC(=O)c3ccccc3)[C@]3(O)C[C@H](OC(=O)[C@H](O)[C@@H](NC(=O)c4ccccc4)c4ccccc4)C(C)=C1C3(C)C)[C@]1(OC(C)=O)CO[C@@H]1C[C@@H]2O` [Taxol]: the “Z Score” value under setting [7] was −11.27. The compound further gave a Z score under setting [2] of −11.274. Under setting [1], the Activity result was “yes”.

For `COc1ccc(CCN(C)CCCC(C#N)(c2cc(OC)c(OC)c(OC)c2)C(C)C)cc1OC.Cl` (racemic) [(±)-Methoxyverapamil hydrochloride], the Z score under setting [2] is given as −1.407. Also, the Activity entry under setting [1] is given as “no”.

As to `Nc1nc2ccc(Cl)cc2c2nc(-c3ccco3)nn12` [CGS-15943], the “Z Score” value is 0.1783 and the Z score is given as 0.178.

`CN(C)C(=O)Oc1ccc[n+](C)c1` [Pyridostigmine bromide]: the “Z Score” value is given as 0.2311. Further, under setting [2], the Z score was 0.231. Also, under setting [8], the Activity entry is on record as “no”.

As for `NC(=O)C1=CN([C@@H]2O[C@H](COP(=O)([O-])OP(=O)([O-])OC[C@H]3O[C@@H](n4cnc5c(N)ncnc54)[C@H](OP(=O)([O-])[O-])[C@@H]3O)[C@@H](O)[C@H]2O)C=CC1.[Na+].[Na+].[Na+].[Na+]` [NADPH tetrasodium], the “Z Score” value under setting [5] stood at 0.3021. The Z score under setting [2] was 0.302. In addition, the Activity entry under setting [1] is recorded as “no”.

As for `C[C@](N)(Cc1ccc(O)c(O)c1)C(=O)O` [L-alpha-Methyl DOPA], the “Z Score” value is −0.897. In addition, under setting [2], the Z score was −0.897. Moreover, the Activity entry under setting [1] is given as “no”.

`CC(C)COC(=O)OCN1C(=O)CN(CCN2CC(=O)N(COC(=O)OCC(C)C)C(=O)C2)CC1=O` [Sobuzoxane]: under setting [7], the “Z Score” value is given as −9.6. The same compound gave a Z score under setting [2] of −9.600. The Activity result under setting [1] is recorded as “yes”.

As for `Ic1ccccc1CNC1C2CCN(CC2)C1C(c1ccccc1)c1ccccc1.O=C(O)C(=O)O` [L-703,606 oxalate], the “Z Score” value under setting [9] is reported as −0.5069. Under setting [2], this compound registered a Z score of −0.507. Further, the Activity result under setting [1] was “no”.

Turning to `O=C1O/C(=C/Br)CCC1c1cccc2ccccc12` (centres unmarked) [Bromoenol lactone], for the setting “168 h, 3 µM”, the “Z Score” value is 0.2484 and the Z score turned out to be 0.248. Also, the Activity result under setting [10] is reported as “no”.

`C[N+](C)(C)CCCCCC[N+](C)(C)C.[Cl-].[Cl-]` [Hexamethonium dichloride]: the “Z Score” value is −10.63. The same compound registered a Z score under setting [2] of −10.634. Under setting [3], the Activity result is recorded as “yes”.

Turning to `O=S(=O)(O)C1CCNCC1` [Piperidine-4-sulphonic acid], under “168 h, 3 µM”, the “Z Score” value is reported as −0.4238 and the Z score is on record as −0.424. The Activity result under setting [8] is “no”.

Regarding (−)-Quinpirole hydrochloride, the “Z Score” value was −1.565 and the Z score is −1.565.

Regarding `O=C(O)c1ccccc1Nc1ccccc1` [N-Phenylanthranilic acid], under setting [7], the “Z Score” value is −1.61. Also, the Z score under setting [2] is −1.610. Besides, the Activity entry under setting [8] is “no”.

Source of the values: patent US8058243B2, “Method for treating a brain cancer with ifenprodil” (HSC Research and Development Limited Partnership, priority 2006, dated 2011).
